# According to patent US7101878B1 (Agouron Pharmaceuticals, Inc., priority 1998, dated 2006):
# Read-outs that look alike come from different tables or passages of the source. Where a SMILES comes first, the peptide text is derived from it. [ ]: non-standard residue; d: D form. The star is where a group is joined. dPhe(4-Cl) = N[C@H](Cc1ccc(Cl)cc1)C(=O)O; d2Nal = N[C@H](Cc1ccc2ccccc2c1)C(=O)O; Lys(iPr) = CC(C)NCCCC[C@H](N)C(=O)O; d3Pal = N[C@H](Cc1cccnc1)C(=O)O; Nicotinoyl = O=C(c1cccnc1)*
# Tests used:
# GLP-1 = GLP-1 (Homo sapiens, UniProt P43220); assay: Selectivity: GLP-1
# Chain of GLP-1 (P43220 24-463): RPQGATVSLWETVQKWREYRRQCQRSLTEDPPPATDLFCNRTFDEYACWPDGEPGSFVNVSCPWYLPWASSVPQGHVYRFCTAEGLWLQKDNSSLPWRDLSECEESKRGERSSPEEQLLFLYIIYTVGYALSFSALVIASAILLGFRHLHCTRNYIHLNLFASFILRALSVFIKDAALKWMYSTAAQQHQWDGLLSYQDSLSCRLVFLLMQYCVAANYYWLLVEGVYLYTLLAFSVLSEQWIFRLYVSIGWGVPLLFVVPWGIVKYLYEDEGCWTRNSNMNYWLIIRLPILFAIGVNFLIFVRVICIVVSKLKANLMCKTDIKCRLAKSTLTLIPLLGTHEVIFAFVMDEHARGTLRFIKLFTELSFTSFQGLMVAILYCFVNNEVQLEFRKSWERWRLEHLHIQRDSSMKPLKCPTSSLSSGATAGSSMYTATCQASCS
# 5-HT2a = 5-HT2a (Homo sapiens, UniProt P28223); assay: Selectivity: 5-HT2a
# Chain of 5-HT2a (P28223 whole entry, species assumed): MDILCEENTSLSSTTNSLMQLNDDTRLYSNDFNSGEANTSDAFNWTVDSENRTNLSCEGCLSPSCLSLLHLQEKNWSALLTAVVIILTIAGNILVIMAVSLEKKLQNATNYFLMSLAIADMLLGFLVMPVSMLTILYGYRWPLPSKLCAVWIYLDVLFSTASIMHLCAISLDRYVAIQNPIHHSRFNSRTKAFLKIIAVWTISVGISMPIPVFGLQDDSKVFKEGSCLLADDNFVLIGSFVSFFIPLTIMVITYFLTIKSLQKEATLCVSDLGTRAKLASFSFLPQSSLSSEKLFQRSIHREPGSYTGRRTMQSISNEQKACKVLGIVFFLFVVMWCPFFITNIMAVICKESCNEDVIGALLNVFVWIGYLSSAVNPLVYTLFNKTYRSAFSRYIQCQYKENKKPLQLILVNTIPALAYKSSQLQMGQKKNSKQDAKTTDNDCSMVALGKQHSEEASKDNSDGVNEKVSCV
# NPY Y1 = target: T1, NPY Y1 (Homo sapiens, UniProt P25929); assay: Selectivity: NPY Y1
# T1 sequence (P25929 1-384): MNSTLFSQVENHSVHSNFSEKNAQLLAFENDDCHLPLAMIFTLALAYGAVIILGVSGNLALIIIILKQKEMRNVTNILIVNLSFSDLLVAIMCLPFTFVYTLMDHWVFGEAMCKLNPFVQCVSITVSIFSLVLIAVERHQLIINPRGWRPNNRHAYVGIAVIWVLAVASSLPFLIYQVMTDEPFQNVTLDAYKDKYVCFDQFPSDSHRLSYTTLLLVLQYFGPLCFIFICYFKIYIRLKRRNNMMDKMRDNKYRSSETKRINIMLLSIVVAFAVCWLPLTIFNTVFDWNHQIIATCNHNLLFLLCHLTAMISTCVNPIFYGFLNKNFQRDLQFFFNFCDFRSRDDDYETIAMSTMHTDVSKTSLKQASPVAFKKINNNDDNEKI
# Glucagon = Glucagon (Homo sapiens, UniProt P47871); assay: Selectivity: Glucagon
# Chain of Glucagon (P47871 26-477): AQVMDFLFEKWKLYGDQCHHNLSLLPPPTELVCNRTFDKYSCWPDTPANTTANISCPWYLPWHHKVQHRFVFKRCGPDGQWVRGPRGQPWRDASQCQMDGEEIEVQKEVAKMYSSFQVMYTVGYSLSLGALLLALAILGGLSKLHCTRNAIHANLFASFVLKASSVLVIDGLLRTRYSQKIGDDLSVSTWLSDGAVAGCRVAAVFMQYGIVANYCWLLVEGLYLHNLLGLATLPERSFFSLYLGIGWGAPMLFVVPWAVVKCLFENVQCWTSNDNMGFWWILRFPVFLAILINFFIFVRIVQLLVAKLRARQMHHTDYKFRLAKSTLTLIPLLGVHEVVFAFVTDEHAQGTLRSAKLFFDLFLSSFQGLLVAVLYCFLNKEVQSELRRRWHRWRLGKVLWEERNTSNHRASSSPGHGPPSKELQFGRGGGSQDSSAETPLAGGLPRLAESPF
# D2 Dopamine = D2 Dopamine (Homo sapiens, UniProt P14416); assay: Selectivity: D2 Dopamine
# Chain of D2 Dopamine (P14416 whole entry): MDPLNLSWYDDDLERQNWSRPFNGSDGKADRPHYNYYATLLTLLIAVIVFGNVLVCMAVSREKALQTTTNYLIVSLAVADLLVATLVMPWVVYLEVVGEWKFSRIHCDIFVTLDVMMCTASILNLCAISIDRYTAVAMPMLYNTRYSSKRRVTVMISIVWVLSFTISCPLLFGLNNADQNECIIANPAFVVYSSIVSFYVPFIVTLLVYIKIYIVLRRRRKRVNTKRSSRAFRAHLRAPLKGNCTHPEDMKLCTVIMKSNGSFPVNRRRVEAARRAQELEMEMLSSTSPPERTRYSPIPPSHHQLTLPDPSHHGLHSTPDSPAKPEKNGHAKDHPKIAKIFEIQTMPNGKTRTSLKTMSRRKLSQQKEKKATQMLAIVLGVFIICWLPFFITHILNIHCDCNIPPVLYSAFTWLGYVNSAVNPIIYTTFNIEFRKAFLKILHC
# ILRA (CXCR-1) = target: T2, ILRA (CXCR-1) (Homo sapiens, UniProt P25024); assay: Selectivity: ILRA (CXCR-1) / IL8
# T2 sequence (P25024 1-350): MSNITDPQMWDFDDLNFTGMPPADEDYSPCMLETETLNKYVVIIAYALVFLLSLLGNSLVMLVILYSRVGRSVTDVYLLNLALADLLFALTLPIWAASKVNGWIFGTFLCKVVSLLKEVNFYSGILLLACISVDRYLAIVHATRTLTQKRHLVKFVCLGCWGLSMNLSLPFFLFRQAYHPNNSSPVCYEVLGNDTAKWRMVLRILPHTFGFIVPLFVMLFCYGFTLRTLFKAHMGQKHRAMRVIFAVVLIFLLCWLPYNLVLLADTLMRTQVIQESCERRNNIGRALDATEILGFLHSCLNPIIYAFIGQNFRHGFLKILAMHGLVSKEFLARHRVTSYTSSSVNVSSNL
# hGnRH receptor = target: T3, hGnRH receptor (Homo sapiens, UniProt P30968); assay: Total inositol phosphates measurement, 293 cells containing the hGnRH receptor; format: cell-based; conditions: for GnRH functional: no species or readout annotated
# T3 construct: expressed in transfected cells; host or cells: HEK 293 (hGnRH-R/293, from Dr. Stuart Sealfon)
# T3 sequence (P30968 1-328): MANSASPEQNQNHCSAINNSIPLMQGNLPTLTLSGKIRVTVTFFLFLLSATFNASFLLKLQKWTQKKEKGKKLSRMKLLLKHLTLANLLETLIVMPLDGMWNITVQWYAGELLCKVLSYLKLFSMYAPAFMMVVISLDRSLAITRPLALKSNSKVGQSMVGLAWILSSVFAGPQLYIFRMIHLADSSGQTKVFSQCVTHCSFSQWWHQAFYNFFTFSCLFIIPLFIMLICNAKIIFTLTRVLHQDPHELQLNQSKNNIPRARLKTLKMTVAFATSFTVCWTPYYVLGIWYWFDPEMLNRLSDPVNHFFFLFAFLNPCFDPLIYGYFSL
# Protocol: To assess the activity of the compounds as agonists or antagonists, an assay measuring accumulation of total inositol phosphates was employed. 293 cells containing the hGnRH receptor were plated onto 24-well plates (approximately 200,000 cells/well) using DMEM media. […] The medium was aspirated and the cells rinsed with serum-free DMEM. The medium was aspirated and the cells were then treated with test compounds or vehicle for 30 minutes at 37° C. […] The media was replaced with ice-cold 10 mM formic acid, which stopped the reaction and also served to extract cellular lipids. Inositol phosphates were separated by ion-exchange chromatography on Dowex columns, which were washed with 2.5 mL of 10 mM myoinositol and 10 mM formic acid. The columns were then washed with 5 mL of 60 mM sodium formate and […], and total inositol phosphates were eluted with 5 mL 1M ammonium formate, 0.1 M formic acid. The column eluates were added to liquid scintillation vials containing 15 ml of scintillation cocktail and were counted by liquid scintillation counting.
# This cell line was provided by Dr. Stuart Sealfon, Mount Sinai Medical School New York, N.Y. These cells were grown in DMEM supplemented with 0.2 g/L G418 100 U/ml penicillin/streptomycin and 10% FBS. Both GGH3 and hGnRH-R/293 cells were utilized for both for both total inositol phosphate measurement and for microphysiometry assessment of compound efficacy.
# [1] = Metabolism rate, pmol/min/mg at 1 μM, human; format: in vitro ADME; conditions: 1 μM compound
# [2] = Metabolism rate, pmol/min/mg at 1 μM, rat male; format: in vitro ADME; conditions: 1 μM compound
# [3] = Metabolism rate, pmol/min/mg at 1 μM, rat female; format: in vitro ADME; conditions: 1 μM compound
# [4] = Metabolism rate, pmol/min/mg at 1 μM, dog; format: in vitro ADME; conditions: 1 μM compound
# [5] = Metabolism rate, pmol/min/mg at 1 μM, monkey; format: in vitro ADME; conditions: 1 μM compound
GnRH functional (hGnRH receptor),Human pmol/min/mg 1 μM [1],Rat male pmol/min/mg 1 μM [2],Rat female pmol/min/mg 1 μM [3],SMILES,Ki (5-HT2a),IC50 (NPY Y1),IC50 (Glucagon),Ki (D2 Dopamine),IC50 (ILRA (CXCR-1)),other results
–,–,–,–,COc1cccc(OC)c1NC(=O)c1ccc(Cc2cc3c(cc2C)C(C)(C)CCC3(C)C)o1 [Compound 20],2.35 µM,> 10 µM,6.7 µM,> 3.2 µM,> 10 µM,IC50 (GLP-1): > 10 µM; Ki (GLP-1): > 10 µM; Ki (NPY Y1): > 10 µM; Ki (Glucagon): 6.7 µM; Ki (ILRA (CXCR-1)): > 10 µM
Antag- onist,346 pmol/min/mg,595 pmol/min/mg,86 pmol/min/mg,COc1cc(OC)c(NC(=O)c2ccc(Cc3cc(C(C)(C)C)ccc3C)o2)c(OC)c1 [Compound 200],–,–,–,–,–,–
Antag- onist,876 pmol/min/mg,2930 pmol/min/mg,–,COc1cc(OC)c(NC(=O)c2ccc(Cc3cc4c(cc3C)C(C)(C)CCC4(C)C)o2)c(OC)c1C#N [Compound 177],–,–,–,–,–,Dog pmol/min/mg 1 μM [4]: 2456 pmol/min/mg; Monkey pmol/min/mg 1 μM [5]: 3120 pmol/min/mg
–,–,–,–,Cc1cnc(CNC(=O)c2ccc(Cc3cc4c(cc3C)C(C)(C)CCC4(C)C)o2)cn1 [Compound 13],–,> 10 µM,7.9 µM,> 3.2 µM,> 10 µM,Kb (hGnRH receptor): 0.085 µM; IC50 (GLP-1): > 10 µM
Antag- onist,238 pmol/min/mg,1246 pmol/min/mg,64 pmol/min/mg,COc1cc(OC)c(NC(=O)c2ccc(Cc3cc4c(cc3C)CCCC4(C)C)o2)c(OC)c1 [Compound 183],–,–,–,–,–,–
–,–,–,–,Cc1cc2c(cc1Cc1ccc(C(=O)NCC3CCCC(CNc4nccc(NCC5CCCO5)n4)C3)o1)C(C)(C)CCC2(C)C (stereo not drawn) [Compound 11],–,2.55 µM,3.2 µM,0.15 µM,> 10 µM,IC50 (GLP-1): > 10 µM
–,–,–,–,Cc1cc2c(cc1Cc1ccc(C(=O)NC[C@H]3CC[C@H](C(=O)O)CC3)o1)C(C)(C)CCC2(C)C [Compound 12],> 4 µM,> 10 µM,10 µM,1.4 µM,> 10 µM,Kb (hGnRH receptor): 0.17 µM
–,311 pmol/min/mg,2393 pmol/min/mg,–,Cc1cc2c(cc1Cc1ccc(C(=O)NCc3cccc(CNc4nccc(NCC5CCCO5)n4)c3)o1)C(C)(C)CCC2(C)C (stereo not drawn) [Compound 70],–,–,–,–,–,–
–,–,–,–,"CC(=O)N[C@H](Cc1ccc2ccccc2c1)C(=O)N[C@H](Cc1ccc(Cl)cc1)C(=O)N[C@H](Cc1cccnc1)C(=O)N[C@@H](CO)C(=O)N[C@@H](CCCCNC(=O)c1cccnc1)C(=O)N[C@H](CCCCNC(=O)c1cccnc1)C(=O)N[C@@H](CC(C)C)C(=O)N[C@@H](CCCCNC(C)C)C(=O)N1CCC[C@H]1C(=O)N[C@H](C)C(N)=O [Antide, reference compound] (Ac-[d2Nal][dPhe(4-Cl)][d3Pal]SK(Nicotinoyl)[dK](Nicotinoyl)L[Lys(iPr)]P[dA]-NH2)",–,–,–,–,–,"stimulation of total [3H]inositol phosphates by compound alone (hGnRH receptor; compound alone, no GnRH): Neither compound alone stimulated an increase; inhibition of GnRH-stimulated total inositol phosphate accumulation (hGnRH receptor; half-maximal concentration of GnRH (1 nM)): able to inhibit the stimulation"
–,–,–,–,Cc1cc2c(cc1Cc1ccc(C(=O)NC[C@H]3CC[C@H](CNC(=N)N)CC3)o1)C(C)(C)CCC2(C)C [Compound 10],1.2 µM,9.7 µM,6.6 µM,–,6.4 µM,Kb (hGnRH receptor): 0.095 µM
Antag- onist,289 pmol/min/mg,2869 pmol/min/mg,135 pmol/min/mg,Cc1cc2c(cc1Cc1ccc(C(=O)NCc3nc4ccccc4[nH]3)o1)C(C)(C)CCC2(C)C [Compound 48],–,> 10 µM,6.3 µM,> 3.2 µM,> 10 µM,IC50 (GLP-1): > 10 µM
Antag- onist,191 pmol/min/mg,4437 pmol/min/mg,271 pmol/min/mg,Cc1cc2c(cc1Cc1ccc(C(=O)NCc3cccc(CNc4ccnc(NC[C@@H]5CCCO5)n4)c3)o1)C(C)(C)CCC2(C)C [Compound 136],–,–,–,0.16 µM,–,Dog pmol/min/mg 1 μM [4]: 3071 pmol/min/mg; Monkey pmol/min/mg 1 μM [5]: 5959 pmol/min/mg

SMILES,GnRH functional (hGnRH receptor),Human pmol/min/mg 1 μM [1],Rat male pmol/min/mg 1 μM [2],Rat female pmol/min/mg 1 μM [3],Ki (5-HT2a),IC50 (NPY Y1),IC50 (Glucagon),Ki (D2 Dopamine),IC50 (ILRA (CXCR-1)),other results
COc1cc(OC)c(NC(=O)c2ccc(Cc3cc4c(cc3C)C(C)(C)CCC4(C)C)o2)c(OC)c1 [Compound 134],Antag- onist,630 pmol/min/mg,3909 pmol/min/mg,94 pmol/min/mg,3.72 µM,–,–,2.4 µM,–,"Kb (hGnRH receptor; human, PI (inositol phosphates)): 0.013 µM; Dog pmol/min/mg 1 μM [4]: 2159 pmol/min/mg; Monkey pmol/min/mg 1 μM [5]: 9277 pmol/min/mg"
COc1cc(OC)c(NC(=O)c2ccc(Cc3cc4c(cc3OC)C(C)(C)CCC4(C)C)o2)c(OC)c1 [Compound 169],Antag- onist,589 pmol/min/mg,3320 pmol/min/mg,–,2.71 µM,–,–,3.4 µM,–,Dog pmol/min/mg 1 μM [4]: 2301 pmol/min/mg; Monkey pmol/min/mg 1 μM [5]: 5940 pmol/min/mg
